Measured values: PubChem BioAssay AID256 (DTP/NCI, 2004)
Inconclusive results and toxic doses are left out. How the source made its calls: active means survival T/C of 150% or more; inactive means T/C below 125% in these data. Positions of bridges follow the written chain, without caps; N, C: chain ends. Residues, ends and D or L forms follow the SMILES beside them.

System: CD2F1 mice, L1210 leukemia ip, survival T/C
Assay: NCI In Vivo Anticancer Drug Screen. Data for tumor model L1210 Leukemia (intraperitoneal) in CD2F1 (CDF1) mice
Details: endpoint: mean survival time, higher = longer survival
How it was run: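 Ratio T/C, where T is the treated-group value and C the vehicle-dosed control value, from mice implanted with a transplantable tumor.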

[1] = dose: 100.0 mg/kg/injection, schedule: Q01DX001 (ip), vehicle: saline with Tween-80

Measured: T/C

CCC(C)C1NC(=O)C(CC(C)C)NC(=O)C(C(C)C)NC(=O)C2CSSCC(NC1=O)C(=O)N2 (configuration not stated) (cyclo(CCVLI); disulfide 1-2; configuration not given here)
inactive: dose: 31.25 micrograms/kg/injection, schedule: Q01DX009 (ip), vehicle: Klucel (hydroxypropylcellulose) (HPC) 93 % of control | dose: 62.5 micrograms/kg/injection, schedule: Q01DX009 (ip), vehicle: Klucel (hydroxypropylcellulose) (HPC) 95 % of control | dose: 125.0 micrograms/kg/injection, schedule: Q01DX009 (ip), vehicle: Klucel (hydroxypropylcellulose) (HPC) 98 % of control | dose: 250.0 micrograms/kg/injection, schedule: Q01DX009 (ip), vehicle: Klucel (hydroxypropylcellulose) (HPC) 96 % of control | dose: 500.0 micrograms/kg/injection, schedule: Q01DX009 (ip), vehicle: Klucel (hydroxypropylcellulose) (HPC) 98 % of control | dose: 1000.0 micrograms/kg/injection, schedule: Q01DX009 (ip), vehicle: Klucel (hydroxypropylcellulose) (HPC) 96 % of control

CC(=O)CC(=O)C(C)(C)C(C)=O
inactive: [1] 98 % of control | dose: 100.0 mg/kg/injection, schedule: Q01DX009 (ip), vehicle: saline sonified 97 % of control | dose: 100.0 mg/kg/injection, schedule: Q04DX002 (ip), vehicle: saline with Tween-80 117 % of control | dose: 200.0 mg/kg/injection, schedule: Q01DX001 (ip), vehicle: saline with Tween-80 104 % of control | dose: 200.0 mg/kg/injection, schedule: Q01DX009 (ip), vehicle: saline sonified 105 % of control | dose: 200.0 mg/kg/injection, schedule: Q04DX002 (ip), vehicle: saline with Tween-80 102 % of control | dose: 400.0 mg/kg/injection, schedule: Q01DX001 (ip), vehicle: saline with Tween-80 101 % of control | dose: 400.0 mg/kg/injection, schedule: Q01DX009 (ip), vehicle: saline sonified 100 % of control | dose: 400.0 mg/kg/injection, schedule: Q04DX002 (ip), vehicle: saline with Tween-80 98 % of control

N#CCC(=O)OCCCCOC(=O)CC#N
inactive: dose: 100.0 mg/kg/injection, schedule: Q01DX009 (ip), vehicle: saline with Tween-80 96 % of control | dose: 100.0 mg/kg/injection, schedule: Q04DX003 (ip), vehicle: saline with Tween-80 103 % of control | dose: 200.0 mg/kg/injection, schedule: Q01DX009 (ip), vehicle: saline with Tween-80 97 % of control | dose: 200.0 mg/kg/injection, schedule: Q04DX003 (ip), vehicle: saline with Tween-80 97 % of control | dose: 400.0 mg/kg/injection, schedule: Q01DX009 (ip), vehicle: saline with Tween-80 96 % of control | dose: 400.0 mg/kg/injection, schedule: Q04DX003 (ip), vehicle: saline with Tween-80 100 % of control

CC(C(=O)c1ccccc1)N(C)c1ccccc1 (configuration not stated)
inactive: dose: 100.0 mg/kg/injection, schedule: Q04DX003 (ip), vehicle: saline 107 % of control | dose: 200.0 mg/kg/injection, schedule: Q04DX003 (ip), vehicle: saline 100 % of control | dose: 400.0 mg/kg/injection, schedule: Q04DX003 (ip), vehicle: saline 102 % of control

OC1CCc2c(Cl)sc(Cl)c21 (configuration not stated)
inactive: dose: 25.0 mg/kg/injection, schedule: Q01DX001 (ip), vehicle: saline with Tween-80 92 % of control | dose: 50.0 mg/kg/injection, schedule: Q01DX001 (ip), vehicle: saline with Tween-80 98 % of control | [1] 98 % of control
